PMC9782211 (Microorganisms, 2022)

Assays:
[1] = system: male Wistar rats; assay: Modified Irwin test (neurobehavioral activity)
Experimental: In this test, an examination is done whether or not drugs induce behavioural and physiologically relevant effects. […] The modified Irwin test was performed under GLP conditions and was comprised of a standard observation battery of tests addressing various parameters of the central nervous, autonomic nervous, peripheral motor, and sensory systems.
The study comprised five treatment groups with six male animals each.
The following investigations were made at the following time points: • Mortality: twice daily during the observation period • Clinical observations: on the day of treatment before application • Body weight development: on the day of delivery and on the day of treatment before application • Modified Irwin test: at the time points pre-test (24 h prior to administration), 1 h, 4 h, 7 h, 24 h, 48 h, and 72 h after application.
Statistical analyses of the data were performed for each group separately. Group mean values (means) with standard deviation (SD) were calculated for body weights, each parameter of the Irwin Test, and each investigation time point.
For Irwin Test parameters, statistical differences between the positive control group and the vehicle control group and between the test item groups and the vehicle control group were evaluated by the Mann–Whitney U-test, using an MS Excel® statistics tool developed and validated in-house; p < 0.05 was accepted as the level of significance.

[2] = system: human erythrocytes; assay: Hemolysis assay; type: cell-based; conditions: pH 7.4, 37 °C, 30 min
Experimental: The activity of the peptides to lyse freshly isolated human erythrocytes was determined in PBS, pH 7.4 at 37 °C. Dilutions were prepared in duplicate in a round bottom microtiter plate. For that, 20 µL erythrocytes (5 · 10^8 cells/mL) was incubated with 80 µL of a peptide sample at 37 °C for 30 min in a humidified box. The hemolytic activity after incubation was measured by transferring the supernatants into another empty microtiter plate. This plate was read on a microtiter plate reader at 405 nm. Hemolytic activity was expressed as the percentage of released hemoglobin with respect to water/buffer controls (100% release) or controls processed without peptides (0% release).
Red blood cells (RBCs) were obtained from citrated human blood by centrifugation (1500× g, 10 min), washed three times with isotonic 20 mM phosphate-NaCl buffer (pH 7.4), and suspended in the same buffer at a concentration equivalent to 5% of the normal hematocrit. […] The supernatants were analyzed spectrophotometrically (with absorbance at 543 nm) for hemoglobin, and results were expressed as the percentage released with respect to sonicated controls (100% release) or controls processed without peptides (0% release).

[3] = system: local lymph node; assay: Local lymph node assay (LLNA), skin sensitization; type: in vivo, mouse
Experimental: • Application of substance on external surface of each ear (25 µL/ear) for 3 consecutive days • On day 6, intravenous injection of tritiated methyl thymidine (^3HTdR) in tail vein, and after about 6 h, sacrification and preparation of lymph node cell • Cell proliferation in lymph node measured by incorporation of ^3HTdR

[4] = Maximum attainable test concentration based on solubility; type: physicochemical; conditions: in aqueous 1% Pluronic PE9200
[5] = system: male and female Wistar rats; assay: 14-day repeated dose toxicology, continuous intravenous infusion; type: in vivo, rat
Experimental: Continuous intravenous infusion was performed over 14 days with 0.5 mg/kg, 3.2 mg/kg, and 20.0 mg/kg Pep19-2.5 and compared to the vehicle in male and female Wistar rats. Groups comprised 10 animals per gender, with an additional 5 animals per gender for recovery animals in the vehicle and high dose groups. The details of the 14-day repeated dose toxicity study will be published elsewhere.
Continuous intravenous infusion was performed over 14 days with 0.5 mg/kg, 3.2 mg/kg and 20.0 mg/kg Pep19-2.5 and compared to the vehicle in male and female Wistar rats. Groups comprised 10 animals per gender, with an additional 5 animals per gender for recovery animals in the vehicle and high dose groups. Based on the parameters determined, the following results were found: […]

[6] = target: T1, hERG ion channel (gene ID 3757) (Homo sapiens, UniProt Q12809); assay: Automated planar patch clamp (QPatch), hERG in CHO cells; type: cell-based; conditions: for relative remaining hERG current: QPatch
T1 construct: expressed in transfected cells
Experimental: For automated patch clamp experiments, QPatch, a planar patch clamp robot, was used. QPatch experiments were performed as previously described. […] Patch clamp experiments were performed in the whole-cell voltage clamp mode on a planar patch clamp chip. Successfully clamped cells were stimulated with the following stimulation protocol: From a holding potential of −80 mV, the cells were partially depolarized to −50 mV to test the leak current at this potential where hERG channels are closed. This was followed by a depolarization to +40 mV. At this depolarized potential, the hERG channels alternate between the open and inactivated states. After partially repolarizing to −50 mV, the inactivated subpopulation of hERG channels rapidly recovers from inactivation and switches into the open state, from where the channels slowly close.
Aspidasept (Pep19-2.5) was applied at nominal concentrations of 1 µg/mL, 10 µg/mL, and 100 µg/mL, and remaining hERG mediated potassium channel currents normalized to initial currents were calculated.

T1 sequence (Q12809 whole entry): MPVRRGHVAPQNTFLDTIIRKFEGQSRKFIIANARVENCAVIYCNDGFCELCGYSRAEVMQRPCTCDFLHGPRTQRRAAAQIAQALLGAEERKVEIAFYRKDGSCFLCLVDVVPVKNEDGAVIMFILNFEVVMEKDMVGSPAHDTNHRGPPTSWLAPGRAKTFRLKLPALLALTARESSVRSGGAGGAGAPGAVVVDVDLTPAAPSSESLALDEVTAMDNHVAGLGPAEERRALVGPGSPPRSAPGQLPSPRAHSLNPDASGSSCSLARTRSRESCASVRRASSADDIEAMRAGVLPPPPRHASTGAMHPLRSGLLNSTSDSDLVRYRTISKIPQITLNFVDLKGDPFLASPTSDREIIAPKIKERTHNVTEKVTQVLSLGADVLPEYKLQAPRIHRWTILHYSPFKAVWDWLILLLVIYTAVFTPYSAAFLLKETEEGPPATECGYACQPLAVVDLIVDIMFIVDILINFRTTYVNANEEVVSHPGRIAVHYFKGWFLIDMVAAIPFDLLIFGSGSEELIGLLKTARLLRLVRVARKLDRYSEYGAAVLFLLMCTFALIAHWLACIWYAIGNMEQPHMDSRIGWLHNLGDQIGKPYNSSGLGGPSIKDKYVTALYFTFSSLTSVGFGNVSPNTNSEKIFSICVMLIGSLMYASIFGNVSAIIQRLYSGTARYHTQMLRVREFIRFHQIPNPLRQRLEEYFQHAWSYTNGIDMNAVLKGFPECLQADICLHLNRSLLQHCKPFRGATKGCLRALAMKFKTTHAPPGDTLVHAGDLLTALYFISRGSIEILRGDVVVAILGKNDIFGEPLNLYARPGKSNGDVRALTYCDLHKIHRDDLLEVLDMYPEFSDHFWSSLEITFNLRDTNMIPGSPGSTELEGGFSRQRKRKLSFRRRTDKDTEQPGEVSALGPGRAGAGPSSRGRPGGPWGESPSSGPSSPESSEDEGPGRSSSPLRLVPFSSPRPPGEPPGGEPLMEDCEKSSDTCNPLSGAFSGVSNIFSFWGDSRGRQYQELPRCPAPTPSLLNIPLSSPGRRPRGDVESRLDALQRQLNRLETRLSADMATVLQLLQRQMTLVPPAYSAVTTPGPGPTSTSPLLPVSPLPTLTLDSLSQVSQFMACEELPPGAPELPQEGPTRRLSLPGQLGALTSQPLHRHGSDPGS

N=C(N)NCCC[C@H](NC(=O)[C@H](Cc1ccc(O)cc1)NC(=O)[C@H](CCCCN)NC(=O)[C@H](CCCCN)NC(=O)[C@H](CS)NC(=O)CN)C(=O)N[C@@H](CCCNC(=N)N)C(=O)N[C@@H](Cc1ccccc1)C(=O)N[C@@H](CCCNC(=N)N)C(=O)N[C@@H](Cc1c[nH]c2ccccc12)C(=O)N[C@@H](CCCCN)C(=O)N[C@@H](Cc1ccccc1)C(=O)N[C@@H](CCCCN)C(=O)NCC(=O)N[C@@H](CCCCN)C(=O)N[C@@H](Cc1ccccc1)C(=O)N[C@@H](Cc1c[nH]c2ccccc12)C(=O)N[C@@H](Cc1ccccc1)C(=O)N[C@@H](Cc1c[nH]c2ccccc12)C(=O)NCC(N)=O [Pep19-2.5]
spontaneous locomotor activity, median score ([1]; 0.02 mg/kg b.w., 1 h, negative control 0.0, not significant): −0.5
positional passivity, median score ([1]; 0.02 mg/kg, 1 h, saline 1.0, p < 0.05): 0.0
hind limb tone, median score ([1]; 0.02 mg/kg, 72 h, negative control 1.0): 2.0
spontaneous locomotor activity, median score ([1]; 0.2 mg/kg b.w., 48 and 72 h, saline −1.0, p < 0.05 at 72 h): 0.5
spontaneous locomotor activity, median score ([1]; 0.2 mg/kg b.w., 1 h, negative control 0.0, not significant): −1.0
head touch, median score ([1]; 0.2 mg/kg, 7 h, saline −1.0, p < 0.01): 0.0
rearing, median score ([1]; 0.2 mg/kg, 48 h, saline −1.0, p < 0.05): 1.0
finger approach, median score ([1]; 0.2 mg/kg, 72 h, saline 0.0, p < 0.05): 2.0
rearing, median score ([1]; 0.2 mg/kg, 72 h, saline −1.0, p < 0.01): 1.0
spontaneous locomotor activity, median score ([1]; 2 mg/kg b.w., 1 h, negative control 0.0, not significant): −1.0
effect in Irwin test ([1]; high dose 2 mg/kg single i.v.): Significant differences were also observed in the high dose group (2 mg/kg), in terms of sensitivity to pinching the tail and vocalization when touched and hind limb reflex
vocalization when touched, median score ([1]; high dose 2 mg/kg, 1 and 24 h, control 0.0, p < 0.05): 1.0
sensitivity to pinching of the tail, median score ([1]; high dose 2 mg/kg, 1 h, negative control 0.0, p < 0.01): −1.5
sensitivity to pinching of the tail, median score ([1]; high dose 2 mg/kg, 7 h, saline 0.0, p < 0.05): −1.5
effect in Irwin test ([1]; low dose 0.02 mg/kg single i.v.): No effect
sensitivity to pinching of the tail, median score ([1]; low dose 0.02 mg/kg, 1 h): 0.0
effect in Irwin test ([1]; mid dose 0.2 mg/kg single i.v.): significant differences to the negative control were noted in rearing, spontaneous locomotor activity and sensitivity to pinching the tail
sensitivity to pinching of the tail, median score ([1]; mid dose 0.2 mg/kg, 1 h): −1.5
neurobehavioral effects overall ([1]; single i.v., 0.02, 0.2 and 2 mg/kg): No relevant neurobehavioral effects
lysis of erythrocytes ([2]; at 100 μg/mL, released hemoglobin vs 100% release control): ≤ 20%
concentration above which cytotoxicity increases (hemolysis) [2]: above 20 μg/mL
skin sensitization potential ([3]; 5%, 2.5%, 1% and 0.5% (w/v) in 1% Pluronic aqueous solution, 25 µL/ear, 3 consecutive days, 3HTdR incorporation): no skin sensitization potential
preliminary irritation/toxicity test ([3]; up to 5% (w/v) in aqueous 1% Pluronic): no adverse effect
maximum attainable test concentration based on solubility [4]: 5 % (w/v)
injection site findings ([5]; 20 mg/kg dose group): local irritating effect
body weight gain ([5]; all dose groups): No statistically significant effect
ophthalmology, clinical chemistry, urine, organ weights ([5]; all dose groups): not affected
aPTT ([5]; female Wistar rats, 0.5 mg/kg/day, n = 10): 19.9 ± 2.2 s
PT ([5]; female, 0.5 mg/kg/day, n = 10): 20.3 ± 2.5 s
TT ([5]; female, 0.5 mg/kg/day, n = 10): 25.7 ± 1.0 s
TT ([5]; female, 3.2 mg/kg/day, n = 10): 25.4 ± 1.0 s
TT ([5]; female, 20.0 mg/kg/day, n = 10): 25.8 ± 0.7 s
mortality ([5]; high dose group 20 mg/kg): One male of the high dose group died
reticulocytes ([5]; high dose group, both genders, complete recovery): slightly reduced
behavioural findings ([5]; high dose group, single animals): test item-related behavioural findings (increased activity, muscle tremor, increased incidence of animals showing signs of discomfort, such as chromorhinorrhea or piloerection)
aPTT ([5]; male Wistar rats, 0.5 mg/kg/day, end of infusion, mean ± SD, n = 9): 19.9 ± 1.7 s
TT ([5]; male, 0,5 mg/kg/day, n = 9): 25.3 ± 1.0 s
PT ([5]; male, 0.5 mg/kg/day, n = 9): 20.0 ± 1.1 s
PT ([5]; male, 3.2 mg/kg/day, n = 10): 21.5 ± 1.3 s
TT ([5]; male, 3.2 mg/kg/day, n = 10): 25.0 ± 0.9 s
aPTT ([5]; male, 3.2 mg/kg/day, n = 10): 18.6 ± 1.8 s
TT ([5]; male, 20.0 mg/kg/day, n = 7): 25.0 ± 0.8 s
PT ([5]; male, n = 7, printed 0.5 mg/kg/day): 20.9 ± 1.3 s
histopathological systemic toxicity ([5]; rat, in vivo): absence of any histopathological systemic toxicity
Rel. Rem. Current ± SD (QPatch) ([6]; 1 µg/mL, fraction): 0.97 ± 0.02
Rel. Rem. Current (QPatch, 20 min Application) ([6]; 10 µg/mL, fraction): 0.92
Rel. Rem. Current ± SD (QPatch) ([6]; 10 µg/mL, fraction): 0.95 ± 0.02
relative remaining hERG current ([6]; 1 µg/mL (Aspidasept n = 4; Pep19-4LF n = 3)): 97.2 ± 2.2%
relative remaining hERG current ([6]; 10 µg/mL (Aspidasept n = 4; Pep19-4LF n = 1)): 95.2 ± 2.5%
relative remaining hERG current ([6]; 10 µg/mL applied for up to 20 min): 92.2%
IC50 ([6]; estimated, no significant effect at highest concentration tested (10 µg/mL), read-out: hypothetical IC50 on hERG-mediated potassium current): > 3.69 µM
